Assay results as given in ChEMBL document CHEMBL1150338, “Prediction and identification of drug interactions with the human ATP-binding cassette transporter multidrug-resistance associated protein 2 (MRP2; ABCC2)” (J Med Chem, 2008).

molecular target: MRP2 (ABCC2) (Homo sapiens, UniProt Q92887); assay: in vitro; conditions: probe estradiol-17-beta-glucuronide
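Note: Inside-out membrane vesicles from Sf9 insect cells expressing human MRP2, measuring uptake of the estradiol glucuronide substrate, expressed as percent of untreated control.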
Description: Effect on human MRP2-mediated estradiol-17-beta-glucuronide transport in Sf9 cells inverted membrane vesicles relative to control

Chain of MRP2 (ABCC2) (Q92887 whole entry): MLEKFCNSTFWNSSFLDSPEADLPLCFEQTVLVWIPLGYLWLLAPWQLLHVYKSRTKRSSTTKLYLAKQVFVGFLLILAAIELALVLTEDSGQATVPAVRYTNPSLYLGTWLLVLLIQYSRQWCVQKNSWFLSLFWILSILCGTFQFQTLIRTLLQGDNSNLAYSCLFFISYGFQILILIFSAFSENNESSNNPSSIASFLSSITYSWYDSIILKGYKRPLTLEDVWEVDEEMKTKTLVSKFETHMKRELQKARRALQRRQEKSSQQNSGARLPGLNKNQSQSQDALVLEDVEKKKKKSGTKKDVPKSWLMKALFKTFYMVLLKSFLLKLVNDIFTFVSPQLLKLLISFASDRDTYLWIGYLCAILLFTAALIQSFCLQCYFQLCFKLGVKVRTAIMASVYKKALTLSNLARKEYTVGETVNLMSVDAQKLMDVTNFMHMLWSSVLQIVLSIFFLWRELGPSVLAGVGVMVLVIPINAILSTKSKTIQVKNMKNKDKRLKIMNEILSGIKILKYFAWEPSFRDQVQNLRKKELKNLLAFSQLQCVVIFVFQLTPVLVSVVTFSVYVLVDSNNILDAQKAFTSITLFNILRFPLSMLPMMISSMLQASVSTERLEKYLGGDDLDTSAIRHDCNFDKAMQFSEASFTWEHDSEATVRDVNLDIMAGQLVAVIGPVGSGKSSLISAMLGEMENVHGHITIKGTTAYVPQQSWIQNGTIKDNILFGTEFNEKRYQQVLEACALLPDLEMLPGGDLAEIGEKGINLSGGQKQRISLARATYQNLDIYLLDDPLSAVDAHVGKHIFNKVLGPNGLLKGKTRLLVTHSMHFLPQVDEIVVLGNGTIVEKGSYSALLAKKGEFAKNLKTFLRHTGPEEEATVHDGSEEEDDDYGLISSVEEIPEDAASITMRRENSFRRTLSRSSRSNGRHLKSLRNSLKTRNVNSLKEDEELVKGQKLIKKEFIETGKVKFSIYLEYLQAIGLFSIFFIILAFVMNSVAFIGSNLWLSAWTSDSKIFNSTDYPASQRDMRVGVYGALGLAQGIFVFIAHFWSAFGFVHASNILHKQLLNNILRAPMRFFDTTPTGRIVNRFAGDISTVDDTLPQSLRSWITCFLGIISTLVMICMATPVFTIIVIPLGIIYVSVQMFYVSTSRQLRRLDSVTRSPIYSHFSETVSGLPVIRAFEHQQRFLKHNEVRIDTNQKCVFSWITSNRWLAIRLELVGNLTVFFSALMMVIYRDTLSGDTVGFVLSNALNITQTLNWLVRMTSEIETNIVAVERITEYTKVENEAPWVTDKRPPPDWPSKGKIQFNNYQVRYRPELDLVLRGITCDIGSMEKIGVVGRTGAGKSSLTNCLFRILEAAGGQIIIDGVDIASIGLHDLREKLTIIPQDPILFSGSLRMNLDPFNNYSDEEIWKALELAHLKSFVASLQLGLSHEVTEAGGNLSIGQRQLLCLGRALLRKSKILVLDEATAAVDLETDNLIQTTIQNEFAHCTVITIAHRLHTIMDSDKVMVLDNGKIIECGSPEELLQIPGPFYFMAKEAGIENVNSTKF

Row | Compound | activity
1 | C[C@]12CC[C@H]3[C@@H](CCC4=CC(=O)CC[C@@H]43)[C@@H]1CC[C@@H]2O [NANDROLONE] | 106%
2 | O=C1C[C@@H](c2ccc(O)cc2)Oc2cc(O)cc(O)c21 [NARINGENIN] | 207%
3 | Cc1ccnc2c1NC(=O)c1cccnc1N2C1CC1 [NEVIRAPINE] | 121%
4 | CNC(=O)c1cccnc1 [NICOTINYL METHYLAMIDE] | 101%
5 | CCOC(=O)C1=C(C)NC(C)=C(C(=O)OC)C1c1cccc([N+](=O)[O-])c1 (configuration not stated) [NITRENDIPINE] | 224%
6 | CNC(=C[N+](=O)[O-])NCCSCc1csc(CN(C)C)n1 [NIZATIDINE] | 110%
7 | COc1ccc2c(c1OC)C(=O)O[C@@H]2[C@H]1c2c(cc3c(c2OC)OCO3)CCN1C [NOSCAPINE] | 78%
8 | CC1COc2c(N3CCN(C)CC3)c(F)cc3c(=O)c(C(=O)O)cn1c23 (configuration not stated) [OFLOXACIN] | 83%
9 | COc1ccc2[nH]c([S+]([O-])Cc3ncc(C)c(OC)c3C)nc2c1 (configuration not stated) [OMEPRAZOLE] | 101%
10 | O=C1Nc2ccc(Cl)cc2C(c2ccccc2)=NC1O (configuration not stated) [OXAZEPAM] | 103%
11 | CC1(C)S[C@@H]2[C@H](NC(=O)Cc3ccccc3)C(=O)N2[C@H]1C(=O)O [PENICILLIN G] | 76%
12 | CCOc1ccc(NC(C)=O)cc1 [PHENACETIN] | 83%
13 | S=C=NCCc1ccccc1 [PHENETHYLISOTHIOCYANATE] | 94%
14 | [H]/N=C(/N)N/C(=N/[H])NCCc1ccccc1 [PHENFORMIN] | 88%
15 | CCC1(c2ccccc2)C(=O)NC(=O)NC1=O [PHENOBARBITAL] | 98%
16 | O=C1NC(=O)C(c2ccccc2)(c2ccccc2)N1 [PHENYTOIN] | 125%
17 | CN1C(C(=O)Nc2ccccn2)=C(O)c2ccccc2S1(=O)=O [PIROXICAM] | 100%
18 | CCCCOc1ccc(OCCCN2CCOCC2)cc1 [PRAMOXINE] | 69%
19 | C[C@]12CC[C@H](OS(=O)(=O)O)CC1=CC[C@@H]1[C@@H]2CC[C@]2(C)C(=O)CC[C@@H]12 [PRASTERONE SULFURIC ACID] | 395%
20 | CC[C@H](C)C(=O)O[C@H]1C[C@H](O)C=C2C=C[C@H](C)[C@H](CC[C@@H](O)C[C@@H](O)CC(=O)O)[C@H]21 [PRAVASTATIN] | 135%
21 | COc1cc2nc(N3CCN(C(=O)c4ccco4)CC3)nc(N)c2cc1OC [PRAZOSIN] | 78%
22 | C[C@]12C=CC(=O)C=C1CC[C@@H]1[C@@H]2[C@@H](O)C[C@@]2(C)[C@H]1CC[C@]2(O)C(=O)CO [PREDNISOLONE] | 110%
23 | C[C@]12C=CC(=O)C=C1CC[C@@H]1[C@@H]2C(=O)C[C@@]2(C)[C@H]1CC[C@]2(O)C(=O)CO [PREDNISONE] | 51%
24 | CCCN(CCC)S(=O)(=O)c1ccc(C(=O)O)cc1 [PROBENECID] | 110%

Row | Compound | activity
25 | O[C@](CCN1CCCC1)(c1ccccc1)C1CCCCC1 [PROCYCLIDINE] | 62%
26 | CC(=O)[C@H]1CC[C@H]2[C@@H]3CCC4=CC(=O)CC[C@]4(C)[C@H]3CC[C@]12C [PROGESTERONE] | 123%
27 | CC(C)NCC(O)COc1cccc2ccccc12 (configuration not stated) [PROPRANOLOL] | 69%
28 | O=c1c(O)c(-c2ccc(O)c(O)c2)oc2cc(O)cc(O)c12 [QUERCETIN] | 40%
29 | C=C[C@H]1C[N@@]2CC[C@H]1C[C@@H]2[C@@H](O)c1ccnc2ccc(OC)cc12 [QUINIDINE] | 64%
30 | C=C[C@H]1C[N@@]2CC[C@H]1C[C@H]2[C@H](O)c1ccnc2ccc(OC)cc12 [QUININE] | 75%
31 | CNC(=C[N+](=O)[O-])NCCSCc1ccc(CN(C)C)o1 [RANITIDINE] | 52%
32 | Oc1ccc(/C=C/c2cc(O)cc(O)c2)cc1 [RESVERATROL] | 75%
33 | CO[C@H]1/C=C/O[C@@]2(C)Oc3c(C)c(O)c4c(O)c(c(/C=N/N5CCN(C)CC5)c(O)c4c3C2=O)NC(=O)/C(C)=C\C=C\[C@H](C)[C@H](O)[C@@H](C)[C@@H](O)[C@@H](C)[C@H](OC(C)=O)[C@@H]1C [RIFAMPIN] | 18%
34 | Cc1nc2sccn2c(=O)c1CCN1CCC(=C(c2ccc(F)cc2)c2ccc(F)cc2)CC1 [RITANSERIN] | 86%
35 | C[C@@H](NCCc1ccc(O)cc1)[C@@H](O)c1ccc(O)cc1 [RITODRINE] | 113%
36 | C=C(C)[C@H]1Cc2c(ccc3c2O[C@@H]2COc4cc(OC)c(OC)cc4[C@@H]2C3=O)O1 [ROTENONE] | 92%
37 | C[n+]1cc2c3c(ccc2c2ccc4cc5c(cc4c21)OCO5)OCO3 [SANGUINARIUM CHLORIDE] | 44%
38 | CC(C)[C@@H]1NC(=O)[C@H](CCCCN)NC(=O)[C@@H](Cc2c[nH]c3ccccc23)NC(=O)[C@H](Cc2ccc(O)cc2)NC(=O)[C@H](C)N(C)C(=O)[C@H](Cc2ccccc2)NC1=O [SEGLITIDE] | 94%
39 | CCC(C)(C)C(=O)O[C@H]1C[C@@H](C)C=C2C=C[C@H](C)[C@H](CC[C@@H]3C[C@@H](O)CC(=O)O3)[C@H]21 [SIMVASTATIN] | 61%
40 | C[C@@H]1CN(c2c(F)c(N)c3c(=O)c(C(=O)O)cn(C4CC4)c3c2F)C[C@H](C)N1 [SPARFLOXACIN] | 138%
41 | CC(=O)S[C@@H]1CC2=CC(=O)CC[C@]2(C)[C@H]2CC[C@@]3(C)[C@@H](CC[C@@]34CCC(=O)O4)[C@H]12 [SPIRONOLACTONE] | 125%
42 | O=C(O)c1cc(/N=N/c2ccc(S(=O)(=O)Nc3ccccn3)cc2)ccc1O [SULFASALAZINE] | 77%
43 | O=C1C(CC[S+]([O-])c2ccccc2)C(=O)N(c2ccccc2)N1c1ccccc1 (configuration not stated) [SULFINPYRAZONE] | 150%
44 | O=C1OC(c2ccc(O)c(S(=O)(=O)O)c2)(c2ccc(O)c(S(=O)(=O)O)c2)c2c(Br)c(Br)c(Br)c(Br)c21 [SULFOBROMOPHTHALEIN SODIUM] | 5%
45 | CC/C(=C(\c1ccccc1)c1ccc(OCCN(C)C)cc1)c1ccccc1 [TAMOXIFEN] | 8%
46 | C[C@H](CCC(=O)NCCS(=O)(=O)O)[C@H]1CC[C@H]2[C@@H]3CC[C@@H]4C[C@H](O)CC[C@]4(C)[C@H]3CC[C@]12C [TAUROLITHOCHOLIC ACID] | 27%
47 | C[C@]12CC[C@H]3[C@@H](CCC4=CC(=O)CC[C@@]43C)[C@@H]1CC[C@@H]2O [TESTOSTERONE] | 140%

same assay, conditions: sf9

Row | Compound | activity
48 | COc1ccc2cc([C@H](C)C(=O)O)ccc2c1 [NAPROXEN] | 92%
49 | COC(=O)C1=C(C)NC(C)=C(C(=O)OCCN(C)Cc2ccccc2)C1c1cccc([N+](=O)[O-])c1 (configuration not stated) [NICARDIPINE] | 59%
50 | CN1CCC[C@H]1c1cccnc1 [NICOTINE] | 101%
51 | O=C1CN(/N=C/c2ccc([N+](=O)[O-])o2)C(=O)N1 [NITROFURANTOIN] | 94%
52 | CCCNCC(O)COc1ccccc1C(=O)CCc1ccccc1 (configuration not stated) [PROPAFENONE] | 58%
53 | COC(=O)[C@H]1[C@H]2C[C@@H]3c4[nH]c5cc(OC)ccc5c4CCN3C[C@H]2C[C@@H](OC(=O)c2cc(OC)c(OC)c(OC)c2)[C@@H]1OC [RESERPINE] | 37%
54 | CC(C)NCC(O)c1ccc(NS(C)(=O)=O)cc1 (configuration not stated) [SOTALOL] | 96%
55 | COc1cc2nc(N3CCN(C(=O)C4CCCO4)CC3)nc(N)c2cc1OC (configuration not stated) [TERAZOSIN] | 94%
56 | CC(C)(C)c1ccc(C(O)CCCN2CCC(C(O)(c3ccccc3)c3ccccc3)CC2)cc1 (configuration not stated) [TERFENADINE] | 3%
57 | CN(C)[C@@H]1C(O)=C(C(N)=O)C(=O)[C@@]2(O)C(O)=C3C(=O)c4c(O)cccc4[C@@](C)(O)[C@H]3C[C@@H]12 [TETRACYCLINE] | 110%
